Measured values reported in PubChem BioAssay (NCI).
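Dose response: 5 concentrations. Exposure: 48 h. Format: 96-well plates. Endpoint: linear interpolation; highest concentration if not reached. Abbreviation: GI50, concentration required for 50% inhibition of growth. TGI: concentration producing complete growth inhibition.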

Legend:
Experiment in all cases: DTP human tumour cell line panel, 48 h
[1] = system: CCRF-CEM leukemia
[2] = system: MDA-MB-435
[3] = system: MDA-N
[4] = system: MOLT-4 leukemia
[5] = system: OVCAR-4 ovarian
[6] = system: OVCAR-5 ovarian
[7] = system: SF-268 CNS
[8] = system: SF-295 CNS
[9] = system: SF-539 CNS
[10] = system: SK-OV-3 ovarian

SMILES	TGI [1]	TGI [2]	TGI [3]	TGI [4]	TGI [5]	TGI [6]	TGI [7]	TGI [8]	TGI [9]	TGI [10]	GI50 [1]	GI50 [4]	GI50 [6]	GI50 [7]	GI50 [9]	GI50 [10]	GI50 [2]
c1cnc(N2CCN(Cc3c[nH]c4ccccc34)CC2)nc1	> 100 µM	> 100 µM	> 100 µM	> 100 µM	> 100 µM	> 100 µM	> 100 µM	> 100 µM	67 µM	> 100 µM							
COC(OC)[C@@H]1OC[C@@H](O)[C@@H]1n1cnc2c(N)ncnc21	> 100 µM	> 100 µM	> 100 µM	> 100 µM	> 100 µM	> 100 µM	> 100 µM	> 100 µM	> 100 µM	> 100 µM							
Fc1cccc(F)c1C1SCc2nc3ccc(Cl)cc3n21 (stereo unspecified)	> 100 µM	> 100 µM	> 100 µM	> 100 µM	> 100 µM	> 100 µM	> 100 µM	> 100 µM	> 100 µM	> 100 µM							
O=C1C(CN2CCOCC2)CCCC1CN1CCOCC1 (stereo unspecified)	4.03 µM	27.5 µM	16.1 µM	2.33 µM	5.44 µM	36.6 µM	43.3 µM	50.5 µM	7.45 µM	51.8 µM							
CC1(C)CC(=O)C2=C(C1)OC1=C(CC(C)(C)CC1=O)C2c1ccccc1[N+](=O)[O-] (stereo unspecified)	> 100 µM	> 100 µM	> 100 µM	> 100 µM	> 100 µM	> 100 µM	> 100 µM	> 100 µM	> 100 µM	> 100 µM							
O=C(CCc1ccccc1)On1c(-c2ccccc2)nc2ccccc2c1=S	> 100 µM	> 100 µM	> 100 µM	23.3 µM	> 100 µM	50.5 µM	> 100 µM	> 100 µM	20.7 µM	> 100 µM							
Clc1ccc(OCc2nn3c(CCc4nnc5sc(COc6ccc(Cl)cc6)nn45)nnc3s2)cc1	> 100 µM	> 100 µM	> 100 µM	> 100 µM	57.7 µM	> 100 µM	> 100 µM	> 100 µM	> 100 µM	> 100 µM							
Oc1[nH]c2ccccc2c1/C=c1/cc2c(c(-c3ccc(F)cc3)n1)=Nc1ccccc1-2	3.25 µM			5.41 µM		4.39 µM	9.26 µM		1.81 µM	3.15 µM	0.648 µM	2.17 µM	1.36 µM	1.01 µM	0.477 µM	0.848 µM	
COc1cc(-c2ccccc2N)c2cccnc2c1OC	22.5 µM	21.1 µM	20.2 µM	7.94 µM	19.6 µM		12.8 µM	7.18 µM	21.6 µM	21.9 µM							
CCOC(=O)C1=C(C)N(c2ccc(OC)cc2)C2(O)C=CC(=O)C3=C(O)c4ccccc4C(=O)C312 (stereo unspecified)	15.9 µM	18.7 µM	34 µM	20.5 µM	10.9 µM	33.4 µM	9.82 µM	29.3 µM	21.2 µM	31.1 µM							
C[Si](C)(c1ccccc1)[C@H]1CCCC=C1CCNC1c2ccccc2CCc2ccccc21	> 100 µM	> 100 µM	> 100 µM	> 100 µM	> 100 µM	> 100 µM	> 100 µM	> 100 µM	> 100 µM	> 100 µM							
O=C(NNc1nc(-c2ccccc2)cs1)C(F)(F)F	> 100 µM	> 100 µM		> 100 µM	> 100 µM	> 100 µM	> 100 µM	> 100 µM		> 100 µM							
O=C1c2cn[nH]c2C(c2ccccc2)N1c1ccccc1 (stereo unspecified)	> 10 µM	> 10 µM	> 10 µM	> 10 µM	> 10 µM	> 10 µM	> 10 µM	> 10 µM	> 10 µM	> 10 µM							
O=c1cnn(CCOCP(=O)(O)O)c(=O)[nH]1	> 100 µM	> 100 µM	> 100 µM	> 100 µM		> 100 µM	> 100 µM		> 100 µM								
C[Si](C)(C)C1=C([Si](C)(C)C)C(Cl)(Cl)C1=O	1.42 µM	7.22 µM	5.39 µM	3.45 µM	12.5 µM	20 µM	21.1 µM	22.3 µM	12.7 µM	49.3 µM							
CCc1nc2ccc(NCCN(C)C)c3c(=O)c4ccccc4n1c23	15.1 µM	2.4 µM		6.28 µM	4.35 µM	6.69 µM	5.36 µM	5.04 µM	15 µM	13.3 µM							
CC(C)(C)N(Cc1ccc2c(c1)OCO2)C(=O)/C=C\Sc1ccccc1	> 100 µM	> 100 µM	> 100 µM	> 100 µM	> 100 µM	> 100 µM		> 100 µM	> 100 µM	> 100 µM							
Cc1cc(=O)[nH]c(NN2C(Cl)C(=O)C2c2cccc(Cl)c2)n1 (stereo unspecified)	41.7 µM			40.7 µM	97 µM	> 100 µM	98.1 µM		39.4 µM								
CSc1c(C(=O)Nc2ccc(Cl)cc2)c(N)n(N)c(=O)c1C#N	> 100 µM	> 100 µM	> 100 µM	> 100 µM	> 100 µM	> 100 µM	> 100 µM		> 100 µM	> 100 µM							
COc1ccc2c(OCc3nnc4ccc(-c5ccccc5)nn34)ccnc2c1	> 100 µM	> 100 µM		> 100 µM		> 100 µM	> 100 µM		> 100 µM	> 100 µM	> 58.1 µM	> 100 µM	> 100 µM	> 100 µM	> 100 µM	> 100 µM	> 100 µM
O=C(CCc1ccccc1)ON1C(=S)C(c2ccccc2)(c2ccccc2)N=C1Sc1ccccc1	> 100 µM			28.6 µM	> 100 µM	> 100 µM	> 100 µM	> 100 µM	> 100 µM	> 100 µM							
